The record followed here is patent publication US6355799B1, “Substituted benzene compounds, process for their preparation, and herbicidal and defoliant compositions containing them” (ISK Americas Incorporated, priority 1997, dated 2002).

Holding throughout (test): Pre-emerge test, greenhouse herbicide activity screening
What all share (assay type): in vivo

The test system of experiment [1] is redroot pigweed (Amaranthus retroflexus, AMARE). As to conditions: for Pre-emerge Herbicidal Activity AMARE (phytotoxicity rating, scale 0-100): rated 14 days after application, 0 = no damage, 100 = complete death; for pest or weed control at 63 g/ha / pest or weed control at 250 g/ha: Amaranthus retroflexus, pre-emergence, 336 h, phytotoxicity rating 0-100 at 14 days after application, read-out: Pre-emerge Herbicidal Activity AMARE; for Pre-emerge Herbicidal Activity AMARE (phytotoxicity rating, scale 0-100) / pest or weed control at 63 g/ha / pest or weed control at 250 g/ha: pre-emerge; for pest or weed control at 63 g/ha: rate 63 g ai/ha; for pest or weed control at 250 g/ha: rate 250 g ai/ha; for Pre-emerge herbicidal activity, phytotoxicity rating AMARE: rating scale 0-100, 14 days after application. In a few lines:
(§1)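 Visual ratings on a 0-100 scale (0 no damage, 100 all plants dead) were taken at 14 days after treatment. Rates of 15-1000 g ai/ha in acetone, 187 l/ha, were sprayed onto soil one day after planting (pre-emerge) or onto 2-3 leaf plants with 0.25% v/v surfactant (post-emerge).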

The test system of experiment [2] is lambsquarters (Chenopodium album, CHEAL). The conditions noted are these: for Pre-emerge Herbicidal Activity CHEAL (phytotoxicity rating, scale 0-100): rated 14 days after application, 0 = no damage, 100 = complete death; for pest or weed control at 63 g/ha / pest or weed control at 250 g/ha: Chenopodium album, pre-emergence, 336 h, phytotoxicity rating 0-100 at 14 days after application, read-out: Pre-emerge Herbicidal Activity CHEAL; for Pre-emerge Herbicidal Activity CHEAL (phytotoxicity rating, scale 0-100) / pest or weed control at 63 g/ha / pest or weed control at 250 g/ha: pre-emerge; for pest or weed control at 63 g/ha: rate 63 g ai/ha; for pest or weed control at 250 g/ha: rate 250 g ai/ha; for Pre-emerge herbicidal activity, phytotoxicity rating CHEAL: rating scale 0-100, 14 days after application. In a few lines:
as §1

In experiment [3] the test system is ivyleaf morningglory (Ipomoea hederacea, IPOHE). As to conditions: for Pre-emerge Herbicidal Activity IPOHE (phytotoxicity rating, scale 0-100): rated 14 days after application, 0 = no damage, 100 = complete death; for pest or weed control at 63 g/ha / pest or weed control at 250 g/ha: Ipomoea, pre-emergence, 336 h, phytotoxicity rating 0-100 at 14 days after application, read-out: Pre-emerge Herbicidal Activity IPOHE; for Pre-emerge Herbicidal Activity IPOHE (phytotoxicity rating, scale 0-100) / pest or weed control at 63 g/ha / pest or weed control at 250 g/ha: pre-emerge; for pest or weed control at 63 g/ha: rate 63 g ai/ha; for pest or weed control at 250 g/ha: rate 250 g ai/ha; for Pre-emerge herbicidal activity, phytotoxicity rating IPOHE: rating scale 0-100, 14 days after application. In a few lines:
as §1

Experiment [4] relates to barnyardgrass (Echinochloa crus-galli, ECHCG). The conditions noted are these: for Pre-emerge Herbicidal Activity ECHCG (phytotoxicity rating, scale 0-100): rated 14 days after application, 0 = no damage, 100 = complete death; for pest or weed control at 63 g/ha / pest or weed control at 250 g/ha: Echinochloa crus-galli, pre-emergence, 336 h, phytotoxicity rating 0-100 at 14 days after application, read-out: Pre-emerge Herbicidal Activity ECHCG; for Pre-emerge Herbicidal Activity ECHCG (phytotoxicity rating, scale 0-100) / pest or weed control at 63 g/ha / pest or weed control at 250 g/ha: pre-emerge; for pest or weed control at 63 g/ha: rate 63 g ai/ha; for pest or weed control at 250 g/ha: rate 250 g ai/ha; for Pre-emerge herbicidal activity, phytotoxicity rating ECHCG: rating scale 0-100, 14 days after application. In a few lines:
as §1

With `Cn1c(C(F)(F)F)cc(=O)n(-c2c(F)cc(Cl)c(OC(F)F)c2N)c1=O` [Compound 1-38, 3-(2-amino-4-chloro-3-difluoromethoxy-6-fluorophenyl)-1-methyl-6-trifluoromethyl-2,4(1H, 3H)-pyrimidinedione], the “Pre-emerge Herbicidal Activity AMARE (phytotoxicity rating, scale 0-100)” value in experiment [1] (63 g ai/ha) and in experiment [1] (250 g ai/ha) was 100 each time. The “Pre-emerge Herbicidal Activity CHEAL (phytotoxicity rating, scale 0-100)” value in experiment [2] (63 g ai/ha) and in experiment [2] (250 g ai/ha) was 100 in each case. Moreover, the “Pre-emerge Herbicidal Activity IPOHE (phytotoxicity rating, scale 0-100)” value in experiment [3] (63 g ai/ha) and in experiment [3] (250 g ai/ha) was 100 throughout. The “Pre-emerge Herbicidal Activity ECHCG (phytotoxicity rating, scale 0-100)” value in experiment [4] (63 g ai/ha) stood at 95; in experiment [4] (250 g ai/ha), 100.

Regarding `CC(C)Oc1c(Cl)cc(F)c(-n2nnn(CCCF)c2=O)c1N` [Compound 5-18, 1-(2-amino-4-chloro-6-fluoro-3-isopropyloxyphenyl)-4-(3fluoropropyl)-1,4-dihydro-5-oxo-5H-tetrazole], the pest or weed control at 63 g/ha in experiment [1] turned out to be 30%; in experiment [2], 70%; in experiment [3], 0%; in experiment [4] it was 0%. Also, the pest or weed control at 250 g/ha was found to be 0% in experiment [1], 95% in experiment [2], 0% in experiment [3] and 0% in experiment [4].

For `COc1c(Cl)cc(F)c(-n2nc(C)n(C(F)F)c2=O)c1NC(=O)c1ccc2ccccc2c1` [Compound 6-15], the pest or weed control at 63 g/ha in experiment [1] turned out to be 100%; in experiment [2] it was 100%; in experiment [3], 70%; in experiment [4], 50%. The pest or weed control at 250 g/ha was 100% in experiment [1], 100% in experiment [2], 40% in experiment [3] and 80% in experiment [4].

As for `Cc1nn(-c2c(Cl)cc(Cl)cc2NC(=O)c2ccc3ccccc3c2)c(=O)n1C(F)F` [Compound 6-16], the pest or weed control at 63 g/ha is 30% in experiment [1], 100% in experiment [2], 0% in experiment [3] and 10% in experiment [4]. The pest or weed control at 250 g/ha in experiment [1] is 50%; in experiment [2], 100%; in experiment [3] it was 0%; in experiment [4] it was 30%.

Regarding `COc1c(Cl)cc(Cl)c(-n2nc(C)n(C(F)F)c2=O)c1NC(=O)c1ccc2ccccc2c1` [Compound 6-17], the pest or weed control at 63 g/ha in experiment [1] amounted to 90%; in experiment [2], 100%; in experiment [3], 0%; in experiment [4] it was 10%. Also, the pest or weed control at 250 g/ha is 100% in experiment [1], 100% in experiment [2], 30% in experiment [3] and 90% in experiment [4].

On to `Cc1nn(-c2c(Cl)cc(Cl)c(N)c2N)c(=O)n1C(F)F` [Compound 6-20], for which the pest or weed control at 63 g/ha in experiment [1] was 10%; in experiment [2], 50%; in experiment [3] it was 0%; in experiment [4] it was 0%. Moreover, the pest or weed control at 250 g/ha was 0% in experiment [1], 30% in experiment [2], 0% in experiment [3] and 0% in experiment [4].

Consider `Cc1nn(-c2c(N)cc(Cl)cc2F)c(=O)n1C(F)F` [Compound 6-22], for which the pest or weed control at 63 g/ha in experiment [1] stood at 30%; in experiment [2] it was 40%; in experiment [3], 0%; in experiment [4], 0%. The pest or weed control at 250 g/ha in experiment [1] was determined as 100%; in experiment [2], 100%; in experiment [3] it was 0%; in experiment [4] it was 0%.

With `Cc1nn(-c2c(F)cc(Cl)cc2NC(=O)c2ccc3ccccc3c2)c(=O)n1C(F)F` [Compound 6-24], the pest or weed control at 63 g/ha amounted to 20% in experiment [1], 30% in experiment [2], 0% in experiment [3] and 0% in experiment [4]. Besides, the pest or weed control at 250 g/ha in experiment [1] is 100%; in experiment [2], 90%; in experiment [3] it was 0%; in experiment [4] it was 0%.

`COc1c(Cl)cc(F)c(-c2nn(C)c(C(F)(F)F)c2Cl)c1NC(=O)c1ccc2ccccc2c1` [Compound 7-14]: the pest or weed control at 63 g/ha in experiment [1] worked out at 40%; in experiment [2], 70%; in experiment [3] it was 30%; in experiment [4], 0%. Moreover, the pest or weed control at 250 g/ha was found to be 80% in experiment [1], 100% in experiment [2], 20% in experiment [3] and 40% in experiment [4].

Turning to `COc1c(Cl)cc(F)c(-c2nn(C)c(C(F)(F)F)c2Cl)c1NC(=O)C=Cc1ccccc1` [Compound 7-15], the pest or weed control at 63 g/ha came to 80% in experiment [1], 100% in experiment [2], 0% in experiment [3] and 0% in experiment [4]. The pest or weed control at 250 g/ha stood at 100% in experiment [1], 100% in experiment [2], 50% in experiment [3] and 10% in experiment [4].

With `CC(C)Oc1c(Cl)cc(F)c(N2C(=O)C3=C(CCCC3)C2=O)c1N` [Compound 8-4, N-(2-amino-4-chloro-6-fluoro-3-isopropyloxyphenyl)tetrahydrophthalimide], the pest or weed control at 63 g/ha turned out to be 60% in experiment [1], 80% in experiment [2], 0% in experiment [3] and 0% in experiment [4]. Further, the pest or weed control at 250 g/ha in experiment [1] came to 100%; in experiment [2], 99%; in experiment [3], 0%; in experiment [4] it was 0%.

For the molecule `COc1c(Cl)cc(F)c(N2C(=O)c3ccccc3C2=O)c1NC(=O)c1ccc2ccccc2c1` [Compound 13-3, N-[4-chloro-6-fluoro-3-methoxy-2-(2-naphthoyl)aminophenyl]phthalimide], the “Pre-emerge herbicidal activity, phytotoxicity rating AMARE” value in experiment [1] (63 g ai/ha) and in experiment [1] (250 g ai/ha) was 100 throughout. Besides, the “Pre-emerge herbicidal activity, phytotoxicity rating CHEAL” value in experiment [2] (63 g ai/ha) was determined as 90; in experiment [2] (250 g ai/ha) it was 100. The “Pre-emerge herbicidal activity, phytotoxicity rating IPOHE” value in experiment [3] (63 g ai/ha) and in experiment [3] (250 g ai/ha) was 0 each time. Moreover, the “Pre-emerge herbicidal activity, phytotoxicity rating ECHCG” value in experiment [4] (63 g ai/ha) turned out to be 0; in experiment [4] (250 g ai/ha), 10.
